Laboratory results as given in BindingDB's records for doi:10.1016/j.bmcl.2013.11.055 (Shanghai Hengrui Pharmaceutical, 2013).

Assays:
[1] = Antagonist activity at P2Y12 receptor in rat platelet-rich plasma assessed as inhibition of ADP-induced platelet aggregation incubated for 5 mins prior to ADP-challenge by light transmission-based assay
[2] = Antagonist activity at P2Y12 receptor in human platelet-rich plasma assessed as inhibition of ADP-induced platelet aggregation incubated for 5 mins prior to ADP-challenge by light transmission-based assay

SMILES	IC50 [1]	IC50 [2]
CCCSc1nc(N[C@@H]2C[C@H]2c2ccc(F)c(F)c2)c2nnn([C@H]3[C@H](O)[C@H](O)[C@@H](O)[C@H]3F)c2n1	0.29 µM	0.22 µM
CCCSc1nc(N[C@@H]2C[C@H]2c2ccc(F)c(F)c2)c2nnn([C@@H]3C[C@H](OCC(F)F)[C@@H](O)[C@H]3O)c2n1	31.3 µM	–
CCCSc1nc(N[C@@H]2C[C@H]2c2ccc(F)c(F)c2)c2nnn([C@@H]3C[C@H](OCC(O)CO)[C@@H](O)[C@H]3O)c2n1 (stereo not given in full)	0.148 µM	–
CCCSc1nc(N[C@@H]2C[C@H]2c2ccc(F)c(F)c2)c2nnn([C@@H]3C=C[C@@H](O)[C@H]3O)c2n1	0.85 µM	1.97 µM
CCCSc1nc(N[C@@H]2C[C@H]2c2cccnc2)c2nnn([C@@H]3C[C@H](OCCO)[C@@H](O)[C@H]3O)c2n1	1.52 µM	–
CCCSc1nc(N[C@@H]2C[C@H]2c2scnc2C)c2nnn([C@@H]3C[C@H](OCCO)[C@@H](O)[C@H]3O)c2n1	1.81 µM	–
CCCSc1nc(N[C@@H]2C[C@H]2c2ccc(F)c(F)c2)c2nnn([C@H]3[C@H](O)[C@H](O)[C@@H](O)[C@@H]3F)c2n1	–	1.67 µM

More lines, now with the values ahead:

IC50 [1]	IC50 [2]	SMILES
0.41 µM	4.82 µM	CCCSc1nc(N[C@@H]2C[C@H]2c2ccc(F)c(F)c2)c2nnn([C@@H]3C[C@H](OCC(F)CO)[C@@H](O)[C@H]3O)c2n1 (stereo not given in full)
0.11 µM	0.33 µM	CCCSc1nc(N[C@@H]2C[C@H]2c2ccc(F)c(F)c2)c2nnn([C@@H]3C[C@H](F)[C@@H](O)[C@H]3O)c2n1
0.48 µM	0.35 µM	CCCSc1nc(N[C@@H]2C[C@H]2c2ccc(F)c(F)c2)c2nnn([C@H]3[C@H](O)[C@H](O)[C@@H](OCCO)[C@H]3F)c2n1
1.25 µM	1.73 µM	CCCSc1nc(N[C@@H]2C[C@H]2c2ccc(F)c(F)c2)c2nnn(C3[C@H](O)[C@H](O)[C@@H](O)[C@H]3O)c2n1 (stereo not given in full)
1.38 µM	11.3 µM	CCCSc1nc(N[C@@H]2C[C@H]2c2ccc(F)c(F)c2)c2nnn([C@H]3[C@H](O)[C@H](O)[C@@H](OCCO)[C@@H]3O)c2n1
0.65 µM	16.3 µM	CCCSc1nc(N[C@@H]2C[C@H]2c2ccc(F)c(F)c2)c2nnn([C@H]3[C@H](O)[C@H](O)[C@@H](O)[C@@H]3O)c2n1
0.16 µM	0.28 µM	CCCSc1nc(N[C@@H]2C[C@H]2c2ccc(Cl)s2)c2nnn([C@@H]3C[C@H](OCCO)[C@@H](O)[C@H]3O)c2n1
–	6.35 µM	CCCSc1nc(N[C@@H]2C[C@H]2c2ccc(F)c(F)c2)c2nnn([C@H]3[C@H](O)[C@H](O)[C@@H](OCCO)[C@@H]3F)c2n1
–	0.5 µM	CCCSc1nc(N[C@@H]2C[C@H]2c2ccc(F)c(F)c2)c2nnn([C@@H]3C[C@H](OCCO)[C@@H](O)[C@H]3O)c2n1 [AR-C126532XX]
